According to patent US20260041617A1, “COSMETIC COMPOSITION APPLICABLE TO THE SKIN AND BASED ON A VOLATILE MIXTURE OF ALKANES” (BIOSYNTHIS, priority 2022, published 2026):

Test: Biodegradability by OECD 301F method (manometric respirometry test)
Experimental: For the purposes of the present invention, the OECD 301F method makes it possible to assess the biodegradability of a substance by a manometric respirometry test.
The biodegradability of a volatile mixture of alkanes used in the cosmetic compositions applicable to the skin according to the invention was measured according to the OECD 301F method. For comparison, the degradation of isododecane (CAS 13475-82-6) was also measured with this method.
The OECD 301F method is used to characterize the ease of biodegradation of a substance by a manometric respirometry test.

Percentage of degradation according to the OECD 301F method: 0%
biodegradable according to the OECD 301F method (result in words): not biodegradable
Compound: CC(CC(C)(C)C)CC(C)(C)C [Isododecane (CAS 13475-82-6), 2,2,4,6,6-pentamethylheptane]
